Measured values from patent US9981956B2, “Small molecule inhibitors of fibrosis” (THE CALIFORNIA INSTITUTE FOR BIOMEDICAL RESEARCH, priority 2013, dated 2018).
Where two headings read alike, the source gives them in different places.

Tests used:
[1] = tested on: fibroblast to myofibroblast transdifferentiation (primary human lung fibroblasts and primary rodent HSCs); assay: High content imaging and western based assay of fibroblast to myofibroblast transdifferentiation (α-SMA); type: cell-based; settings: graded, TGF-β induced fibroblast to myofibroblast transdifferentiation
Cyp3A4 [2] = molecular target: T1, Cyp3A4 (Homo sapiens, UniProt P08684); assay: Cyp reversible inhibition assay (human liver microsomes)
T1 sequence (P08684 whole entry): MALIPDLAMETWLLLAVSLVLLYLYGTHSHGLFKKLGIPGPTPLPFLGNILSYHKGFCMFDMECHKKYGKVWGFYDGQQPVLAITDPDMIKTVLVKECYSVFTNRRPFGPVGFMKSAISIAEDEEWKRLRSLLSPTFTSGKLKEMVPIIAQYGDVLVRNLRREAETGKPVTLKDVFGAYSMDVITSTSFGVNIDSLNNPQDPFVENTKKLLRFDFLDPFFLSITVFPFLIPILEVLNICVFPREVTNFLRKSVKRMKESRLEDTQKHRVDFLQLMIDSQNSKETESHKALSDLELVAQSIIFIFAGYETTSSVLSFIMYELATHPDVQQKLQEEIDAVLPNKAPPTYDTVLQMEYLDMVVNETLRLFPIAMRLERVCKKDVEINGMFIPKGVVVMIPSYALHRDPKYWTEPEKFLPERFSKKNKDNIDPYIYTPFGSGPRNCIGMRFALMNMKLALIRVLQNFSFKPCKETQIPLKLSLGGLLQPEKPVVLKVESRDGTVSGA
Procedure: The purpose of this assay was to determine reversible inhibition of Cyp enzyme with a given compound using a substrate probe turnover as the surrogate for inhibition. This was done with human liver microsomes rather an isolated enzyme to account for metabolites of parent drug leading to a potential drug-drug interaction through Cyp inhibition. The substrate turnover (for example conversion of midazolam to hydroxyl midazolam) was monitored by LCMSMS (Q1/Q2=342.2/203.2). Test compounds were tested in a 7-point dose response curve starting from 50 μM to 50 nM (˜3-fold dilution series).
The detailed protocol was as follows: • Prepared test compounds and standard inhibitors working solution (100×) • Pulled microsomes out of the −80° C. freezer to thaw on ice, labeled with the date and put back to freezer immediately after using. • Added 20 μL of the substrate solutions to corresponding wells. • Added 20 μL PB to Blank wells. • Added 2 μL of the test compounds and positive control working solution to corresponding wells. • Added 2 μL MeOH to No Inhibitor wells and Blank wells. • Prepared HLM working solution. • Added 158 μL of the HLM working solution to all wells of incubation plate. • Pre-warmed the plate for about 10 min at 37° C. water bath. • Prepared NADPH cofactor solution. • Added 20 μL NADPH cofactor to all incubation wells. • Mixed and incubated for 10 minutes at 37° C. water bath. • At the time point, terminated the reaction by adding 400 μL cold stop solution (200 ng/mL Tolbutamide in ACN). • Centrifuged the samples at 4000 rpm for 20 minutes to precipitate protein. • Transferred 200 μL supernatant to 200 μL HPLC water and shook for 10 min. • Analyzed samples by LC/MS/MS.

[3] = tested on: Candida albicans (ATCC 10231); assay: Candida albicans anti-fungal MIC potency determination; type: cell-based
Procedure: The wild type Candida albicans (ATCC 10231) was used and Fluconazole, amphotericin B, itraconazole and terbinafine were purchased from Sigma and used as positive controls.
The highest assay concentration for all test compounds and fluconazole was 100 μM. Fluconazole was also tested at the highest concentration of 64 μg/ml, and amphotercin B and terbinafine at 16 and 64 μg/ml. The test compounds were in DMSO stock solution at a concentration of 10 mM. Two stock solutions in DMSO were prepared for fluconazole at 10 mM and 6.4 mg/ml. Amphotericin B and terbinafine stock solutions in DMSO were prepared at 1.6 and 6.4 mg/ml.
Serial dilution of 100× stock solutions: 4 μl of stock solution was added into 196 μl of RPMI1640 (MOPS buffered and free of HEPES and sodium bicarbonate) in the first well of a row of a sterile u-bottom 96-well plate. The rest of the wells was filled with 100 μl RPMI1640. The 2-fold serial dilution was made sequentially by transferring 100 μl solution to the next well and mixing by pipetting, until 11th well. The extra 100 μl in 11th well was discarded. Therefore, the compound wells contained 100 μl of 2× of testing concentrations of drugs in RPMI1640. The 12th well was filled with only 100 μl RPMI1640.
C. albicans 3147 (ATCC 10231) glycerol frozen stock was streaked on Sabouraud dextrose agar (SDA). The plate was incubated at 35° C. ambient atmosphere for 20 h. Single colonies were suspended into sterile saline until turbidity reached 0.1 (1-5×10^6 CFU/ml) using a Siemens turbidity meter. This suspension was diluted 50× in RPMI1640 in a 15 ml conical, and then it was further diluted 20× in RPMI1640 in a 50 ml conical. This gave 1-5×10^3 CFU/ml suspension and was used as inoculum. The cell density in inoculum was plate-counted to be 4.94×10^3 CFU/ml.
The plates were incubated at 35° C. in ambient atmosphere. The photos were taken at 24 h and 48 h. The MIC end points for fluconazole and amphotericin B were read according to the M27-A3 protocol (Reference Method for Broth Dilution Antifungal Susceptibility Testing of Yeasts; Approved Standard-Third Edition, M27-A3 standard published Jan. 1, 2008 by Clinical and Laboratory Standards Institute). The MIC for compounds for test cmpds and terbinafine (not mentioned in M27-A3 protcol) were read as if they were azoles.

Cyp3A4 [4] = molecular target: T1, Cyp3A4; assay: Cyp time-dependent inhibition (TDI) assay (human liver microsomes); type: in vitro ADME; design: The TDI assay was generally performed in liver microsomes; from tissue; host or cells: human liver microsomes; settings: for IC50: human liver microsomes; for TDI ratio: (−) NADPH/(+) NADPH: IC50 shift, >1.5-fold considered positive for TDI
Procedure: The data from this assay was used in conjunction to the reversible inhibition assay. […] Then both incubation sets were diluted with fresh assay buffer containing NADPH Cyp specific substrates (midazolam for Cyp3A4) and inhibition of midazolam hydroxylation was measured by LC-MS/MS (Q1/Q2=m/z 342.2/203.2).

[5] = Cyp 3A4 midazolam LCMS IC50, human liver microsomes, substrate midazolam
[6] = Cyp 3A4 testosterone LCMS IC50, human liver microsomes, substrate testosterone
[7] = ATCC10231, 24 h, read-out: C. Albicans MIC90 at 24 h
[8] = ATCC10231, 48 h, read-out: C. Albicans MIC90 at 48 h
[9] = 20 min pre-incubation with NADPH, read-out: 3A4-Midazolam IC50 (+) NADPH
[10] = 20 min pre-incubation without NADPH, read-out: 3A4-Midazolam IC50 (−) NADPH

| IC50 (Cyp3A4 [2]; [5]) [µM] | IC50 (Cyp3A4 [2]; [6]) [µM] | MIC90 [3, 7] [µM] | MIC90 [3, 8] [µM] | IC50 (Cyp3A4 [4]; [9]) [µM] | IC50 (Cyp3A4 [4]; [10]) [µM] | TDI ratio: (−) NADPH/(+) NADPH (Cyp3A4 [4]) | SMILES | EC50 [1] [nM] |
| --- | --- | --- | --- | --- | --- | --- | --- | --- |
| > 50 | > 50 | > 100 | > 100 | 41 | > 50 | ~1.2 (no TDI) | CCC(C)n1ncn(-c2ccc(N3CCN(c4ccc(OC[C@@H]5CO[C@@](Cn6nccn6)(c6ccc(Cl)cc6Cl)O5)cc4)CC3)cc2)c1=O (stereo partly drawn) [Compound 15] | 500 to 5000 |
| > 50 | > 50 | > 100 | > 100 | > 50 | > 50 | ~1 (no TDI) | CCC(C)n1ncn(-c2ccc(N3CCN(c4ccc(OC[C@@H]5CO[C@@](Cc6ccnnc6)(c6ccc(Cl)cc6Cl)O5)cc4)CC3)cc2)c1=O (stereo partly drawn) [Compound 22] | < 500 |
| > 50 | > 50 | > 100 | > 100 | > 50 | > 50 | ~1 (no TDI) | CCC(C)n1ncn(-c2ccc(N3CCN(c4ccc(OC[C@@H]5CO[C@@](Cn6nccn6)(c6ccccc6)O5)cc4)CC3)cc2)c1=O (stereo partly drawn) [Compound 42] | < 500 |
